ChEMBL document CHEMBL4049385 (Bioorg Med Chem Lett, 2017)
The source made the active and inactive calls. The calls are words filed in the database; no cut-off is given here.

Legend:
[1] = biological target: T1, Oxysterols receptor LXR-alpha (Homo sapiens, UniProt Q13133); assay: Partial agonist activity at recombinant human GAL4-DBD-fused LXRalpha-LBD expressed in HEK293T cells measured after 12 to 14 hrs by dual-glo luciferase reporter gene assay; type: cell-based, HEK-293T
T1 sequence (Q13133 whole entry): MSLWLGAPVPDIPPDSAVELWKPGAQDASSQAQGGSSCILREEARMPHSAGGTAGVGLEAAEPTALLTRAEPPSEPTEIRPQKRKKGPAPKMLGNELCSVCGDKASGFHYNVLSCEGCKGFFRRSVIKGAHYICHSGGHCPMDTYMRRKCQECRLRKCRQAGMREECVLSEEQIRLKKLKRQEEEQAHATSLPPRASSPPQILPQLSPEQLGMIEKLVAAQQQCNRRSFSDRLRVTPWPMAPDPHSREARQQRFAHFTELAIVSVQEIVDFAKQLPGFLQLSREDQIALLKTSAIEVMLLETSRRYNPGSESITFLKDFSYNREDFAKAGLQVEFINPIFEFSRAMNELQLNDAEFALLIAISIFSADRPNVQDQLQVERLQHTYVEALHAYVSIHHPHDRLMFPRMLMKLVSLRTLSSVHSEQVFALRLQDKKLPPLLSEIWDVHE

[2] = biological target: T2, Oxysterols receptor LXR-beta (Homo sapiens, UniProt P55055); assay: Partial agonist activity at recombinant human GAL4-DBD-fused LXRbeta-LBD expressed in HEK293T cells measured after 12 to 14 hrs by dual-glo luciferase reporter gene assay; type: cell-based, HEK-293T
T2 sequence (P55055 whole entry): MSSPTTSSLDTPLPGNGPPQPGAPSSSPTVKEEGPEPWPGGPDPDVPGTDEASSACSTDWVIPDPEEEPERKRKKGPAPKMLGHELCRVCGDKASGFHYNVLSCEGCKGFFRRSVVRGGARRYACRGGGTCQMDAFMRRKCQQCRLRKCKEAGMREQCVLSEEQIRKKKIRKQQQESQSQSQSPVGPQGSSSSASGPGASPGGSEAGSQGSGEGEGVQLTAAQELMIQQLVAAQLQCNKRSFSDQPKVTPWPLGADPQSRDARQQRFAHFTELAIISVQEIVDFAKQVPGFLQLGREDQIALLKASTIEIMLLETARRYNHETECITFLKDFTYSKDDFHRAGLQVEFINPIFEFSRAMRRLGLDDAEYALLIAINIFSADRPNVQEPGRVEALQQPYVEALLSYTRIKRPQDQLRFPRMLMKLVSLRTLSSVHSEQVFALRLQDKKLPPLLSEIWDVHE

HEK-293T [3] = assay: Effect on recombinant firefly luciferase activity expressed in HEK293T cells at 1 uM after 12 to 14 hrs by luminescence assay; type: ADME, cell-based; settings: human
[4] = biological target: T3, Oxysterols receptor LXR-alpha (Homo sapiens) (UniProt Q13133); assay: Partial antagonist activity at recombinant human GAL4-DBD-fused LXRalpha-LBD expressed in HEK293T cells assessed as inhibition of GW3965-induced receptor activation at 1 uM measured after 12 to 14 hrs by dual-glo luciferase reporter gene assay; type: cell-based; settings: HEK-293T
T3 sequence (whole entry): T1 sequence (Q13133 whole entry)

[5] = biological target: T3, Oxysterols receptor LXR-alpha (Homo sapiens); assay: Partial antagonist activity at recombinant human GAL4-DBD-fused LXRalpha-LBD expressed in HEK293T cells assessed as inhibition of WAY252623-induced receptor activation at 1 uM measured after 12 to 14 hrs by dual-glo luciferase reporter gene assay; type: cell-based; settings: HEK-293T
[6] = biological target: T4, Oxysterols receptor LXR-beta (Homo sapiens) (UniProt P55055); assay: Partial agonist activity at recombinant human GAL4-DBD-fused LXRbeta-LBD expressed in HEK293T cells at 10 uM measured after 12 to 14 hrs by dual-glo luciferase reporter gene assay relative to T0901317; type: cell-based; settings: HEK-293T
T4 sequence (whole entry): T2 sequence (P55055 whole entry)

[7] = biological target: T3, Oxysterols receptor LXR-alpha (Homo sapiens); assay: Agonist activity at recombinant human GAL4-DBD-fused LXRalpha-LBD expressed in HEK293T cells at 1 uM in presence of LXR-agonist 22(R)-hydroxycholesterol measured after 12 to 14 hrs by dual-glo luciferase reporter gene assay; type: cell-based; settings: HEK-293T
[8] = biological target: T3, Oxysterols receptor LXR-alpha (Homo sapiens); assay: Partial agonist activity at recombinant human GAL4-DBD-fused LXRalpha-LBD expressed in HEK293T cells at 10 uM measured after 12 to 14 hrs by dual-glo luciferase reporter gene assay relative to T0901317; type: cell-based; settings: HEK-293T
[9] = Cmax in patient with solid tumor at 300 mg/m2, po administered once daily; type: ADME, organism-based; set-up: route oral; settings: human, in vivo
[10] = biological target: T3, Oxysterols receptor LXR-alpha (Homo sapiens); assay: Agonist activity at recombinant human GAL4-DBD-fused LXRalpha-LBD expressed in HEK293T cells at 10 to 20 uM in presence of RXR-antagonist HX531 measured after 12 to 14 hrs by dual-glo luciferase reporter gene assay; type: cell-based; settings: HEK-293T
[11] = biological target: T3, Oxysterols receptor LXR-alpha (Homo sapiens); assay: Agonist activity at recombinant human GAL4-DBD-fused LXRalpha-LBD expressed in HEK293T cells at 10 uM in presence of RXR-antagonist HX531 measured after 12 to 14 hrs by dual-glo luciferase reporter gene assay; type: cell-based; settings: HEK-293T
[12] = biological target: T3, Oxysterols receptor LXR-alpha (Homo sapiens); assay: Partial antagonist activity at recombinant human GAL4-DBD-fused LXRalpha-LBD expressed in HEK293T cells assessed as inhibition of GW3965-induced receptor activation at 10 uM after 12 to 14 hrs by dual-glo luciferase reporter gene assay; type: cell-based; settings: HEK-293T
Homo sapiens [13] = assay: Toxicity in chronic hand eczema patient assessed as increase in triglyceride level at 30 mg, po administered once daily for 24 weeks relative to control; type: organism-based; settings: in vivo, 4032 h
[14] = Cmax in chronic hand eczema patient at 30 mg, po administered once daily for 24 weeks; type: ADME, organism-based; set-up: dose 30 mg, route oral; settings: human, in vivo
Homo sapiens [15] = assay: Toxicity in chronic hand eczema patient assessed as increase in serum cholesterol level at 30 mg, po administered once daily for 24 weeks relative to control; type: organism-based; settings: in vivo, 4032 h
[16] = biological target: T3, Oxysterols receptor LXR-alpha (Homo sapiens); assay: Partial antagonist activity at recombinant human GAL4-DBD-fused LXRalpha-LBD expressed in HEK293T cells assessed as inhibition of WAY252623-induced receptor activation at 10 uM after 12 to 14 hrs by dual-glo luciferase reporter gene assay; type: cell-based; settings: HEK-293T
[17] = biological target: T3, Oxysterols receptor LXR-alpha (Homo sapiens); assay: Agonist activity at recombinant human GAL4-DBD-fused LXRalpha-LBD expressed in HEK293T cells at 10 uM in presence of LXR-agonist 22(R)-hydroxycholesterol measured after 12 to 14 hrs by dual-glo luciferase reporter gene assay; type: cell-based; settings: HEK-293T
HEK-293T [18] = assay: Effect on recombinant firefly luciferase activity expressed in HEK293T cells at 10 uM after 12 to 14 hrs by luminescence assay; type: ADME, cell-based; settings: human

Question: Which results are given for `Fc1ccc(-c2c3cccc(C(F)(F)F)c3nn2Cc2ccc(F)cc2Cl)cc1` [LXR-623]?
Answer: EC50 [1]: 1440 nM; EC50 [2]: 900 nM

Question: Which results are given for `C=C(c1ccc(C(=O)O)cc1)c1cc2c(cc1C)C(C)(C)CCC2(C)C` [BEXAROTENE]?
Answer: Activity (HEK-293T [3]): Non-Toxic; inhibition [4]: Active; inhibition [5]: Active; fold change (FC) [6]: 2.23; Activity [7]: Active; fold change (FC) [8]: 1.82; EC50 [1]: 196 nM; EC50 [2]: 434 nM; Cmax [9]: 3390 nM

Question: Which Activity [10] does the source give for `CC(C)CC[C@@H](O)[C@@H](C)[C@H]1CC[C@H]2[C@@H]3CC=C4C[C@@H](O)CC[C@]4(C)[C@H]3CC[C@]12C` here?
Answer: Active

Question: What does the source list for `CC1=C(/C=C/C(C)=C\C=C\C(C)=C\C(=O)O)C(C)(C)CCC1` [ALITRETINOIN]?
Answer: Activity [11]: Active; fold change (FC) [6]: 1.68; inhibition [12]: Active; Activity (Homo sapiens [13]): 8%; fold change (FC) [8]: 1.39; Cmax [14]: 810 nM; Activity (Homo sapiens [15]): 14%; inhibition [16]: Active; Activity [17]: Active; EC50 [2]: 1730 nM; Activity (HEK-293T [18]): Non-Toxic
